Columns and labels:
UGT2B7 = target: T1, UGT2B7 (Homo sapiens, UniProt P16662); test: Covalent adduct formation of NSAIDs-AG with UGT2B7; assay type: binding; conditions: 180 μM, UGT 3.4 μM, 6 h; for covalent adduct formation with UGT2B7 compared with the other diastereomer: R vs S diastereomer
T1 construct: purchased Corning, Inc
T1 sequence (P16662 24-529): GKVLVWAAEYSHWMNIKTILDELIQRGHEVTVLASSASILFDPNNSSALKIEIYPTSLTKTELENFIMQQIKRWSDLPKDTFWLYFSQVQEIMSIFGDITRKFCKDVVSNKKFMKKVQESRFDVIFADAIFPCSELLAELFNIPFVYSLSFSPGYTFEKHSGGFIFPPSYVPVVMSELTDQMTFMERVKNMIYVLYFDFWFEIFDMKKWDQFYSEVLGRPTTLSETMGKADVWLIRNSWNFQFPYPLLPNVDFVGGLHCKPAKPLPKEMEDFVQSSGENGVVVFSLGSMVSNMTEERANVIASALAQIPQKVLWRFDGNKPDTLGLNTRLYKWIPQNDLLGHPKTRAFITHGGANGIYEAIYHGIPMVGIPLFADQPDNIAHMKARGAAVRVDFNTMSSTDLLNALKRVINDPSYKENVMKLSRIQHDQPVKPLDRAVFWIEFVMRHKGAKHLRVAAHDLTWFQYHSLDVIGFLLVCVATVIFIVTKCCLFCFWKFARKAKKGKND
Experimental: (§1) The concentrations of UGT were set at 3.4 μM by the preliminary experiments on the linearity of covalent adduct formation. The covalent adduct formation of NSAIDs-AG with organelle proteins and UGT was determined according to previous reports on NSAIDs-AG with albumin with some modifications. After a deproteinization of the reaction mixture, methanol/diethyl ether (3:1) was added to the pellet. […] The concentrations of the parent NSAIDs were measured using liquid chromatography-tandem mass spectrometry (LC-MS/MS). Aliquots of 10 μL were injected into the LC-MS/MS system. The LC-MS/MS equipment consisted of an LC system (UltiMate 3000 series, Thermo Fisher Scientific, Inc.) and TSQ Endura Triple Quadrupole Mass Spectrometer with electrospray ionization (Thermo Fisher Scientific, Inc.). Finnigan Xcalibur software (Thermo Fisher Scientific, Inc.) was used for data recording and analysis. Analysis was further performed using a reversed-phase column (COSMOSIL 5C18-MSII, 2.0 mm × 150 mm, 5 μm; Nacalai Tesque, Inc.). The column temperature was set to 40 °C, and the autosampler was maintained at 10 °C. The mobile phase (A; 30% methanol in 8.5 mM ammonium formate and 0.0075% formic acid, and B; 90% methanol in 8.5 mM ammonium formate and 0.0075% formic acid) was pumped at a flow rate of 0.2 mL/min. The initial mobile phase composition was maintained at 30% mobile phase B for 1 min, changed linearly to 90% mobile phase B from 1 to 8 min, maintained for 1 min, returned to 30% mobile phase B from 9 to 10 min, and maintained for 1 min for chromatographic column equilibrium. The MS scan was operated in positive ionization mode for DIC, MEF, ZOM, KET, and NAP, or negative ionization mode, for FLU. The conditions for electrospray ionization were set at 3500 V spray voltage for positive ionization mode and 2500 V spray voltage for negative ionization mode at 400 °C capillary temperature, and 300 °C vaporizer temperature with 40 arbitrary units of nitrogen sheath gas and 10 arbitrary units of auxiliary gas. The MS scan was operated in the positive or negative ionization mode. The selected reaction monitoring (SRM) mode was used, with argon as the collision gas at 1.5 mTorr. The mass resolution was set at 0.7 full-width at half-height (unit resolution). SRM transitions (precursor and product ions) were mass to charge ratios of (m/z) 296 > 214 for DIC (positive ionization mode), 294 > 250 for DIC (negative ionization mode), 242 > 224 for MEF, 292 > 139 for ZOM, 243 > 198 for R- and S-FLU, 255 > 209 for R- and S-KET, 231 > 185 for R- and S-NAP, and 302 > 220 for DIC-d4. The collision energies were 15 V for DIC (negative ionization mode), ZOM, MEF, FLU, KET, and NAP; 35 V for DIC (positive ionization mode); and DIC-d4. The concentrations of NSAIDs were determined from a single-point calibration in every assay for NSAIDs after confirmation of linearity between area and concentrations of NSAIDs.

UGT2B4 = target: T2, UGT2B4 (Homo sapiens, UniProt P06133); test: Covalent adduct formation of NSAIDs-AG with UGT2B4; assay type: binding; conditions: 180 μM, UGT 3.4 μM, 6 h
T2 construct: purchased Corning, Inc
T2 sequence (P06133 24-528): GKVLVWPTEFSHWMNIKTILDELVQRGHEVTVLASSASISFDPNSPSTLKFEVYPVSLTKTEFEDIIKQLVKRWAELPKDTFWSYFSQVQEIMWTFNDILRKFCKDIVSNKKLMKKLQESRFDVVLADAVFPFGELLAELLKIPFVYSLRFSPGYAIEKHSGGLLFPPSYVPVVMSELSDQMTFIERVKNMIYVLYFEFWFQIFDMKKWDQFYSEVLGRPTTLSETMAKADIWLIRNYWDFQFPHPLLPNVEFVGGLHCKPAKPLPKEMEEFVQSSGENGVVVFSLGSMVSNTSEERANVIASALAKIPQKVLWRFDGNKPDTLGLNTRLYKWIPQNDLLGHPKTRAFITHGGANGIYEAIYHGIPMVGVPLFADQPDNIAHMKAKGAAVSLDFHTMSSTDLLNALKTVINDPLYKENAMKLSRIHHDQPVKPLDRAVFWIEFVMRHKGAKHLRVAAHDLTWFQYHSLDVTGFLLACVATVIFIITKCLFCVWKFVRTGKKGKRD
Experimental: as §1

UGT1A1 = target: T3, UGT1A1 (Homo sapiens, UniProt P22309); test: Covalent adduct formation of NSAIDs-AG with UGT1A1; assay type: binding; conditions: R vs S diastereomer; 180 μM, UGT 3.4 μM, 6 h
T3 construct: purchased Corning, Inc
T3 sequence (P22309 26-533): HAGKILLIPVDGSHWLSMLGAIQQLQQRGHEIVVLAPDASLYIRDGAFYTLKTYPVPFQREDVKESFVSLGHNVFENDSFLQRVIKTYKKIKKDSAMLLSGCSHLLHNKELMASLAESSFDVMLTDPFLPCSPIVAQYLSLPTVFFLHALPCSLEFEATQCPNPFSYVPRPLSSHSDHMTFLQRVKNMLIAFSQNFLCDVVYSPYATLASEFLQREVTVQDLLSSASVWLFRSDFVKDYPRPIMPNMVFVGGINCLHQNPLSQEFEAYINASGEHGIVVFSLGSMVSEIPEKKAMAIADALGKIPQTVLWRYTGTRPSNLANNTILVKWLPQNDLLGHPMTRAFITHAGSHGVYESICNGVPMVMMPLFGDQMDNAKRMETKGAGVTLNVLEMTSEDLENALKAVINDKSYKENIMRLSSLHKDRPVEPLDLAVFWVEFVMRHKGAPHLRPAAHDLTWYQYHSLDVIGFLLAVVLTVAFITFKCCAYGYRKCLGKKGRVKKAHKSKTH
Experimental: as §1, with “The conditions for electrospray ionization were set at 3500 V spray voltage for positive ionization mode and 2500 V spray voltage for negative ionization mode at 400 °C capillary temperature, and 300 °C vaporizer temperature with 40 arbitrary units of nitrogen sheath gas and 10 arbitrary units of auxiliary gas. The MS scan was operated in the positive or negative ionization mode. The selected reaction monitoring (SRM) mode was used, with argon as the collision gas at 1.5 mTorr. The mass resolution was set at 0.7 full-width at half-height (unit resolution). SRM transitions (precursor and product ions) were mass to charge ratios of (m/z) 296 > 214 for DIC (positive ionization mode), 294 > 250 for DIC (negative ionization mode), 242 > 224 for MEF, 292 > 139 for ZOM, 243 > 198 for R- and S-FLU, 255 > 209 for R- and S-KET, 231 > 185 for R- and S-NAP, and 302 > 220 for DIC-d4. The collision energies were 15 V for DIC (negative ionization mode), ZOM, MEF, FLU, KET, and NAP; 35 V for DIC (positive ionization mode); and DIC-d4.” left out

UGT1A9 = target: T4, UGT1A9 (Homo sapiens, UniProt O60656); test: Covalent adduct formation of NSAIDs-AG with UGT1A9; assay type: binding; conditions: R vs S diastereomer; 180 μM, UGT 3.4 μM, 6 h
T4 construct: purchased Corning, Inc
T4 sequence (O60656 26-530): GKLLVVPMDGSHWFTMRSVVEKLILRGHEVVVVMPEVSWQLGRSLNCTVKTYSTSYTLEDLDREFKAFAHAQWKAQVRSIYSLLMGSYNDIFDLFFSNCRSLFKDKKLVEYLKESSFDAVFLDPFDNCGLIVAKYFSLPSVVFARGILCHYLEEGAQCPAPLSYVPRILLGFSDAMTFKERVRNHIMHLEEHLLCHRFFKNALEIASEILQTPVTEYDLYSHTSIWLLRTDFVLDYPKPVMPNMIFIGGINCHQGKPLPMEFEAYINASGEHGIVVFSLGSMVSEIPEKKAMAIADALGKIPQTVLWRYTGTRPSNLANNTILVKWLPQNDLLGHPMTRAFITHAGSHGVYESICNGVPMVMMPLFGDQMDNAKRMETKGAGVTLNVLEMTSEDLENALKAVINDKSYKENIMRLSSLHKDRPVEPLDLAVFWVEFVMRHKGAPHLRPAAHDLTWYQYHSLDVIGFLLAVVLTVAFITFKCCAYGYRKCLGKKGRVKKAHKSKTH
Experimental: as §1, with “The conditions for electrospray ionization were set at 3500 V spray voltage for positive ionization mode and 2500 V spray voltage for negative ionization mode at 400 °C capillary temperature, and 300 °C vaporizer temperature with 40 arbitrary units of nitrogen sheath gas and 10 arbitrary units of auxiliary gas. The MS scan was operated in the positive or negative ionization mode. The selected reaction monitoring (SRM) mode was used, with argon as the collision gas at 1.5 mTorr. The mass resolution was set at 0.7 full-width at half-height (unit resolution). SRM transitions (precursor and product ions) were mass to charge ratios of (m/z) 296 > 214 for DIC (positive ionization mode), 294 > 250 for DIC (negative ionization mode), 242 > 224 for MEF, 292 > 139 for ZOM, 243 > 198 for R- and S-FLU, 255 > 209 for R- and S-KET, 231 > 185 for R- and S-NAP, and 302 > 220 for DIC-d4. The collision energies were 15 V for DIC (negative ionization mode), ZOM, MEF, FLU, KET, and NAP; 35 V for DIC (positive ionization mode); and DIC-d4.” left out

[1] = parameters: method as in PMID 20606003, PMID 1673415; conditions: phosphate buffers (pH 7.4); cited from earlier work

covalent adduct formation with UGT2B7 (UGT2B7; 37 °C)	Compound	amounts of covalent adducts with UGT2B (UGT2B7) relative to UGT1A isoforms (UGT2B7)	amounts of covalent adducts with UGT2B (UGT2B4) relative to UGT1A isoforms (UGT2B4)	covalent adduct formation with UGT2B7 compared with the other diastereomer (UGT2B7)	covalent adduct formation with UGT1A1 compared with the other diastereomer (UGT1A1)	covalent adduct formation with UGT1A9 compared with the other diastereomer (UGT1A9)	half-lives in buffers [1]	amounts of covalent adducts with UGT2B7 compared with UGT1A9 (UGT2B7)
–	CC(C(=O)OC1OC(C(=O)O)C(O)C(O)C1O)c1ccc(-c2ccccc2)c(F)c1 (stereo not shown) [R-FLU-AG]	relatively higher amounts of covalent adducts	relatively higher amounts of covalent adducts	–	–	–	–	–
–	COc1ccc2cc(C(C)C(=O)OC3OC(C(=O)O)C(O)C(O)C3O)ccc2c1 (stereo not shown) [R-NAP-AG]	relatively higher amounts of covalent adducts	relatively higher amounts of covalent adducts	significantly more covalent adducts	significantly more covalent adducts	significantly more covalent adducts	–	–
–	CC(C(=O)OC1OC(C(=O)O)C(O)C(O)C1O)c1ccc(-c2ccccc2)c(F)c1 (stereo not shown) [S-FLU-AG]	–	–	significantly higher	significantly higher	significantly higher	–	–
higher amounts of covalent adducts	Cc1cc(CC(=O)O[C@@H]2O[C@H](C(=O)O)[C@@H](O)[C@H](O)[C@H]2O)n(C)c1C(=O)c1ccc(Cl)cc1 [ZOM-AG]	–	–	–	–	–	relatively short half-lives	significantly higher amounts of covalent adducts

Reference: publication PMC9104950, “Stereoselective Covalent Adduct Formation of Acyl Glucuronide Metabolite of Nonsteroidal Anti-Inflammatory Drugs with UDP-Glucuronosyltransferase” (International Journal of Molecular Sciences, 2022)
